{"source": "patent US11419827B2", "about": "“Protecting tissue and mitigating injury from radiation-induced ionizing events” (Humanetics Corporation, priority 2017, dated 2022)", "key": {"Human cardiomyocytes": {"system": "Human cardiomyocytes", "assay": "Live cell counts of human cardiomyocytes after mixed field (32% neutron, 68% gamma) radiation", "type": "cell-based", "conditions": "treated 24 hours before exposure to various doses of MF radiation; counts 3 days after exposure", "method": "FIG. 5 is a graph plotting the number of live human cardiomyocytes after treatment of the cells with genistein 24 hours before exposure to various doses of mixed field (32% neutron, 68% gamma) radiation (henceforth referred to as “MF” radiation). Live cell counts were performed 3 days after radiation exposure.\nHuman cardiomyocytes were treated with genistein 24 hours before exposure to various doses of mixed field (“MF,” 32% neutron, 68% gamma) radiation. Live cell counts were performed 3 days after radiation exposure."}, "[1]": {"system": "CXCL1 cytokine, G-CSF, TNFα", "assay": "Multi-cytokine LUMINEX panel on peripheral blood of mice exposed to 6 Gy high LET proton radiation", "type": "in vivo", "conditions": "200 mg/kg s.c. 24 hours before 6 Gy high LET proton radiation; blood taken 3, 6 and 12 days after exposure", "method": "FIGS. 4A, 4B, and 4C are graphs plotting the levels of CXCL1 cytokine (FIG. 4A), granulocyte colony stimulating factor (G-CSF; FIG. 4B), and tumor necrosis factor alpha (TNFα; FIG. 4C) in blood from mice injected with 200 mg/kg genistein (s.c.) 24 hours prior to exposure to 6 Gy high LET proton radiation. In these experiments, blood was drawn from mice on the indicated days following radiation exposure, and the levels of cytokines were assayed.\n(§1) Mice were prophylactically administered genistein (200 mg/kg) via s.c. injection 24 hours prior to radiation exposure. Appropriate sham radiation and vehicle controls were applied. Radiation exposures of 6 Gy with high-LET protons [50 MeV fully modulated spread-out Bragg peak (SOBP)] were utilized. The following parameters were examined:\nCytokine response—Peripheral blood was taken from the treated and irradiated mice 3, 6, and 12 days after radiation exposure, and assessed using a multi-cytokine LUMINEX® panel to evaluate the global inflammatory cytokine response."}, "[2]": {"conditions": "in several pharmaceutically acceptable solvents; cited from earlier work"}, "p53 and γH2AX": {"system": "p53 and γH2AX", "assay": "Western blot for DNA damage markers p53 and γH2AX in heart and lung tissue of mice exposed to 6 Gy high LET proton radiation", "type": "in vivo", "conditions": "200 mg/kg s.c. 24 hours before 6 Gy high LET proton radiation, tissues harvested 3 days later, vs tubulin control", "method": "FIG. 2 is a western blot with heart and lung tissue extracted from animals that were treated with or without genistein [200 mg/kg subcutaneously (s.c.)] and then exposed to 6 Gy high LET proton radiation 24 hours after treatment. The indicated tissues were harvested 3 days later. The levels of p53 (a DNA damage response protein) and γH2AX (a direct measurement of DNA damage) were measured and compared to a tubulin control.\nas §1\nDNA damage in tissues—Lungs and heart were surgically removed and subjected to thin-slice sectioning, followed by western blot analysis for the DNA damage markers p53 and γH2AX (an effective measure of proton radiation-induced biological damage; see, Liu et al., Radiation Oncology 91(5):1081-1089, 2015), as well as tubulin control."}}, "note": "“Also recorded” adds a separate entry of the source.", "data": [{"compound": "O=c1c(-c2ccc(O)cc2)coc2cc(O)cc(O)c12", "note": "[genistein, 5,7-dihydroxy-3-(4-hydroxyphenyl)-chromen-4-one]", "values": [{"measurement": "survival (live cell counts) after MF radiation", "setting": "Human cardiomyocytes", "result": "increased survival"}, {"measurement": "expression of CXCL1 cytokine in blood", "setting": "[1]", "result": "mitigated the effects of proton radiation"}, {"measurement": "expression of G-CSF in blood", "setting": "[1]", "result": "mitigated the effects of proton radiation"}, {"measurement": "expression of TNFα in blood", "setting": "[1]", "result": "mitigated the effects of proton radiation"}, {"measurement": "solubility", "setting": "[2]", "result": "low to virtually no solubility"}, {"measurement": "p53 levels in response to radiation exposure", "setting": "p53 and γH2AX", "result": "prevented a marked increase in p53 levels"}, {"measurement": "p53 levels in response to radiation exposure", "setting": "p53 and γH2AX; listed as Genistein", "result": "ameliorated the effects of proton radiation"}, {"measurement": "γH2AX levels", "setting": "p53 and γH2AX; listed as Genistein", "result": "lower levels of γH2AX; also recorded: ameliorated the effects of proton radiation"}]}]}
